Assay results published in patent US6552192B1, “Substituted nitrogen heterocyclic derivatives and pharmaceutical use thereof” (Ustau Experimentalni Botaniky AV-CR, priority 1999, dated 2003).
Where two headings read alike, the source gives them in different places.

Key:
IκB-α = IκB-α kinase inhibition, in vitro kinase assay; type: biochemical
CDC2 (p34^cdc2) = target: T1, CDC2 (p34^cdc2) (Homo sapiens, UniProt P06493); assay: CDK inhibition assay, p34cdc2 kinase (histone H1 phosphorylation); type: biochemical; conditions: 1 mg/ml histone H1, 15 μM ATP
T1 construct: made in house; host or cells: Sf9 insect cells (baculovirus co-infection)
T1 sequence (P06493 whole entry, species assumed): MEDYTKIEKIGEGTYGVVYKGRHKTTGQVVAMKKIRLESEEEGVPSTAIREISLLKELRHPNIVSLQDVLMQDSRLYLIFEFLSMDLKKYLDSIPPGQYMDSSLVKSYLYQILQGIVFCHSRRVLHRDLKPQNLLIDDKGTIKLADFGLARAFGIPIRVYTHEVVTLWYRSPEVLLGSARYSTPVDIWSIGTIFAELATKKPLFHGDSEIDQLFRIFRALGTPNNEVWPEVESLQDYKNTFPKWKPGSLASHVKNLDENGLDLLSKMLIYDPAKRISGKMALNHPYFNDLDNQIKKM
T1 sequence (P14635 whole entry partner, species assumed): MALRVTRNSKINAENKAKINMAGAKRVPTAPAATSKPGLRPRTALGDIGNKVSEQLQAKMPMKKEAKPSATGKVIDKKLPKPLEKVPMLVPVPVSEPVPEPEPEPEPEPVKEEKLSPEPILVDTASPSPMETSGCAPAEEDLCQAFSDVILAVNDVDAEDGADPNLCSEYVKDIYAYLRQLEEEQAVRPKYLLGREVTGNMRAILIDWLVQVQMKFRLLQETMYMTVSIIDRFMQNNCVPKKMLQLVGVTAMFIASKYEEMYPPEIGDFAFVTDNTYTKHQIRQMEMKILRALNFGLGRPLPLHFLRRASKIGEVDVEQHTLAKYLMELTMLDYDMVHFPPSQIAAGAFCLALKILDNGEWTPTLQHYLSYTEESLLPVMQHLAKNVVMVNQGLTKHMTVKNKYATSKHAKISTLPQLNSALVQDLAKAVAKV
Description: Cyclin-dependent kinases (p34^cdc2, p33^cdk2, p33^cdk4) and cyclins (cyclin B, E and D1) are produced in Sf9 insect cells coinfected with appropriate baculoviral constructs. The cells are harvested 68-72 hrs post infection in lysis buffer for 30 min on ice and the soluble fraction is recovered by centrifugation at 14.000 g for 10 min. The protein extract is stored at −80° C.
Lysis buffer: 50 mM Tris pH 7,4, 150 mM NaCl, 5 mM EDTA, 20 mM NaF, 1% Tween, 1 mM DTT, 0.1 mM PMSF, leupeptine, aprotomine
To carry out experiments on kinetics under linear conditions, the final point test system for kinase activity measurement is used. The kinase is added to reaction mixture in such a way as to obtain linear activity with respect to the concentration of enzyme and with respect to time.
Kinase activity is determined at 30° C. in the kinase buffer.
Tested compounds are usually dissolved to 100 mM solutions in DMSO, final concentration of DMSO in reaction mixture never exceeds 1%. The controls contain suitable dilutions of DMSO.
After 10 min, addition 3×SDS sample buffer stops the incubations. […] The measurement of kinase activity is done using digital image analysis.
The kinase activity is expressed as a percentage of maximum activity, the apparent inhibition constants are determined by graphic analysis. Kinase buffer: 50 mM Hepes pH 7.4, 10 mM MgCl2, 5 mM EGTA, 10 mM 2-glycerolphosphate, 1 mM NaF, 1 mM DTT

[1] = tested on: T-lymphoblastic leukemia cell line CEM; assay: In vitro cytotoxicity, MTT assay, CEM; type: cell-based; conditions: Homo sapiens, 72 hours
Description: (§1) One of the parameters used, as the basis for colorimetric assays, is the metabolic activity of viable cells. For example, a microtiter assay, which uses the tetrazolium salt MTT, is now widely used to quantitate cell proliferation and cytotoxicity. For instance, this assay is used in drug screening programs and in chemosensitivity testing. Because only metabolically active cells cleave tetrazolium salts, these assays detect viable cells exclusively. In the case of MTT assay, yellow soluble tetrazolium salt is reduced to coloured water-insoluble formazan salt. After it is solubilized, the formazan formed can easily and rapidly be quantified in a conventional ELISA plate reader at 570 nm (maximum absorbance). The quantity of reduced formazan corresponds to number of vital cells in the culture.
(§2) The cells were maintained in Nunc/Corning 80 cm^2 plastic tissue culture flasks and cultured in cell culture medium (DMEM with 5 g/l glucose, 2 mM glutamine, 100 U/ml penicillin, 100 μg/ml streptomycin, 10% fetal calf serum and sodium bicarbonate).
(§3) The cell suspensions that were prepared and diluted according to the particular cell type and the expected target cell density (2.500-30.000 cells per well based on cell growth characteristics) were added by pipette (80 μl) into 96/well microtiter plates. Inoculates were allowed a pre-incubation period of 24 hours at 37° C. and 5% CO2 for stabilisation. Four-fold dilutions of the intended test concentration were added at time zero in 20 μl aliquots to the microtiter plate wells. Usually, test compound was evaluated at six 4-fold dilutions. […] All drug concentrations were examined in duplicates. Incubations of cells with the test compounds lasted for 72 hours at 37° C., in 5% CO2 atmosphere and 100% humidity. At the end of incubation period, the cells were assayed by using the MTT. Ten microliters of the MTT stock solution were pipetted into each well and incubated further for 1-4 hours. […] The optical density (OD) was measured at 540 nm with the Labsystem iEMS Reader MF (UK). The tumour cell survival (TCS) was calculated using the following equitation: TCS=(ODdrug exposed well/mean ODcontrol wells)×100%. The TCS50 value, the drug concentration lethal to 50% of the tumour cells, was calculated from the obtained dose response curves.

B16 melanoma = assay: In vitro cytotoxicity, MTT assay, B16; type: cell-based; conditions: Mus musculus, 72 hours
Description: as §1, §2, §3

[2] = tested on: normal human lymphocytes, spontaneous proliferation; assay: Spontaneous proliferation of lymphocytes, 3H-thymidine incorporation; type: cell-based; conditions: Lymphocyte, 72 hours, unstimulated lymphocytes
Description: (§4) Human heparinized peripheral blood was obtained from healthy volunteers by cubital vein punction.
(§5) The cells were diluted at target density of 1.100.000 cells/ml were added by pipet (180 μl) into 96/well microtiter plates. Four-fold dilutions of the intended test concentration were added at time zero in 20 μl aliquots to the microtiter plate wells. Usually, test compound was evaluated at six 4-fold dilutions. […] Incubations of cells with test compounds lasted for 72 hours at 37° C., in 5% CO2 atmosphere and 100% humidity. At the end of incubation period, the cells were assayed by using the [^3H]-TdR:
(§6) Cell cultures were incubated with […] (20 μl of stock solution 500 μCi/ml) per well for 6 hours at 37° C. and 5% CO2. The automated cell harvester was used to lyse cells in water and adsorb the DNA onto glass-fiber filters in the format of microtiter plate. The DNA incorporated [^3H]-TdR was retained on the filter while unincorporated material passes through. The filters were dried at room temperature overnight, sealed into a sample bag with 10-12 ml of scintillant. The amount of [^3]H-TdR present in each filter (in CCPM) was determined by scintillation counting in a Betaplate liquid scintillation counter. The effective dose of immunosuppressant (ED) was calculated using the following equotation: ED=(CCPMdrug exposed well/mean CCPMcontrol wells)×100%.

[3] = tested on: normal human lymphocytes, mitogen activated proliferation; assay: Mitogen (concanavalin A) activated proliferation of lymphocytes, 3H-thymidine incorporation; type: cell-based; conditions: Lymphocyte, 72 hours
Description: as §4, §5, §6

[4] = unit nM printed beside the value

Row | IC50 (IκB-α; [4]) [nM] | IC50 (CDC2 (p34^cdc2); [4]) [nM] | melting point [°C] | IC50 (IκB-α) [nM] | IC50 (CDC2 (p34^cdc2); 30° C., 10 min) [nM] | Compound | IC50 [1] [µM] | IC50 (B16 melanoma) [µM] | IC50 [2] [µM] | IC50 [3] [µM]
1 | 11 | 3.8 | – | – | – | CC(C)[C@H](CO)Nc1nc(Nc2cccc(Cl)c2)c2nc(F)n(C(C)C)c2n1 | 2.5 | – | – | –
2 | – | – | 64 to 67 | – | – | CSc1nc2c(NCc3ccccc3)nc(NCCCO)nc2n1C(C)C [2-(3-hydroxypropylamino)-6-benzylamino-8-methylthio-9-isopropylpurine] | 68.4 | 60.6 | – | –
3 | – | – | – | 12800 | 8520 | CC(C)n1c(N)nc2c(NCc3ccccc3)nc(NCCCO)nc21 | 8.52 | 6.8 | 143 | 1.59
4 | – | – | – | 153000 | 144000 | CC(C)n1c(NCCO)nc2c(NCc3ccccc3)nc(NCCCO)nc21 | > 167 | > 167 | 181 | 29.3
5 | – | – | – | 16200 | 13500 | Cn1c(O)nc2c(NCc3ccccc3)nc(NCCO)nc21 | 45.5 | 56.2 | 201 | 48.6
6 | – | – | – | 35700 | 22400 | Cn1c(S)nc2c(NCc3ccccc3)nc(NCCO)nc21 | 92.4 | 85.7 | ≥ 250 | 83.5
7 | – | – | – | 193000 | 181000 | CC[C@H](CO)Nc1nc(NCc2ccccc2)c2nc(NCN)n(C(C)C)c2n1 | – | – | 177 | 25.8
8 | – | – | – | 154000 | 125000 | Cn1c(NCCO)nc2c(NCc3ccccc3)nc(NCCO)nc21 | > 167 | > 167 | ≥ 250 | 169
9 | – | – | 156 to 161 | 24500 | 12900 | CC(C)n1c(Br)nc2c(NCc3ccccc3)nc(NCCCO)nc21 [2-(3-hydroxypropylamino)-6-benzylamino-8-bromo-9-isopropypurine] | 117 | 76.4 | 178 | 5.9
10 | – | – | – | 1200 | 380 | CC[C@H](CO)Nc1nc(NCc2ccccc2)c2nc(F)n(C(C)C)c2n1 | 3.38 | 3.2 | – | –
11 | – | – | 123 to 125 | – | – | COc1cccc(CNc2nc(Cl)nc3c2nc(Br)n3C(C)C)c1 [Example 3, 6-(3-Methoxybenzylamino)-2-chloro-8-bromo-9-isopropylpurine] | – | – | – | –
12 | – | – | – | 12600 | 6480 | CC(C)n1c(O)nc2c(NCc3ccccc3)nc(NCCCO)nc21 | 7.48 | 5.6 | 163 | 2.1
